# In patent US9504672B2, “Compositions and methods for treating or preventing pneumovirus infection and associated diseases” (MicroDose Therapeutx, Inc., priority 2012, dated 2016):
# Where two headings read alike, the source gives them in different places.
# Columns and labels:
# [1] = human, in vivo
# From the text: (§1) In summary, the MicroDose Inhaler operation comprises the drug powder contained in a protective blister until delivery. The blister is pierced externally and then placed in contact with a piezoelectric vibrator within the MicroDose Inhaler. When the patient inhales, an airflow sensor automatically turns on the piezo which provides energy to deaggregate the particles of powder and aerosolizes them into the inhalation airstream, providing synchronized delivery. The MicroDose Inhaler was triggered by pressure drop and programmed to produce a series of brief aerosol bursts of predetermined duration within the range of 0.1 to 2.0 seconds, preferably 0.1 seconds, early during each inhalation cycle and for 16 consecutive breaths. The studies were conducted as follows:
# Study 3: A Double-Blind, Randomized, 3 Period Crossover, Single Ascending Dose Study to Assess the Safety and Tolerability of Inhaled MDT-637 P3 in Subjects with Intermittent or Mild-to-Moderate Persistent Asthma (Asthma Trial)
# The primary objective of Study 3 was to assess the safety and tolerability of MDT-637 P3 when inhaled by subjects with Intermittent, or Mild-to-Moderate Persistent, Asthma. A secondary objective of Study 3 was to determine the rate and extent of systemic absorption of MDT-637 and trough nasal wash MDT-637 drug concentrations following dry powder inhalation dosing.
# Each subject was dosed on 3 separate days during the study. Each subject received an initial dose of placebo (Period 1), followed by random allocation at Period 2 to a single dose of nasally inhaled MDT-637 P3 or double blind placebo. After an observation and furlough period, subjects returned for Period 3 to receive three doses of study drug (MDT-637 P3 or placebo) over a single day as listed below. The study consisted of 5 visits: Visit 1 (Screening), Visits 2, 3 and 4 (Dosing), and Visit 5 (Follow up); subjects were furloughed from the clinic for 6 up to 14 days between Visits 3 and 4 and 7-8 days between Visit 4 and 5. Subjects who met all of the inclusion criteria and none of the exclusion criteria (Table 19, FIG. 29) at Visit 1 were eligible to return for Visit 2 within 42 days of screening. Subjects were admitted to the study center twice, once for Visit 2 and again for Visit 4. Visit 5, was a safety follow up (outpatient) visit.
# The doses of MDT-637 P3 were determined based on previous clinical experience in Study 1. Both placebo and active were administered as a dry powder for nasal inhalation via a face mask using a MicroDose Inhaler device. At Visit 2, all 10 patients were dosed with placebo Once Daily. At Visit 3, subjects were randomly allocated so that 8 subjects were dosed with MDT-637 P3 Once Daily 66 mcg and 2 subjects received double blind placebo. At Visit 4, subjects were again randomly allocated so that 8 subjects were dosed with MDT-637 TID 132 mcg and 2 subjects received double blind placebo.
# Pharmacokinetic variables (Cmax, Tmax, AUC, T1/2) were evaluated based on blood samples drawn at Visit 4.
# [2] = Particle size of micronized material (Sympatec HELOS & RODOS); format: physicochemical
# [3] = human, in vivo; remark: listed apart in the source
# Procedure: (§2) Subjects were enrolled in cohorts of 12 subjects. […] The study consisted of 3 visits: Visit 1 (Screening), Visit 2 (Dosing), Visit 3 (Follow up) and subjects remained at the study site for pharmacokinetic (PK) sampling, spirometry, and safety assessments. […] Day 1 was the first day of dosing and Day 10 was the final day of dosing, following which subjects remained at the study site for 24 hours following the last dose for PK sampling and spirometry. Visit 3 was a follow-up visit, 7 to 10 days after the last dose. Cohorts were dosed as follows:
# (§3) The first doses for twice daily (BID) and three times daily (TID) were administered in the morning, starting at approximately 0700 hours on each day of dosing. BID doses were administered at 12 hour intervals and TID doses were administered at 6 hour intervals each dose day.
# (§4) Pharmacokinetic endpoints (Cmax, Tmax, AUC, T1/2) and dose proportionality was assessed based on a limited number of plasma samples following the first dose on Day 1 and last dose on Day 10
# (§5) Pharmacokinetic variables (Cmax, Tmax, AUC, T1/2) were evaluated based on blood samples drawn following first dose (Days 1-2) and last dose (Days 10-11).
# [4] = Crystal (skeletal) density by nitrogen pycnometry; format: physicochemical
# [5] = Specific surface area (BET); format: physicochemical
# [6] = Stability of lactose formulation at 40° C./75% RH, sealed glass bottles, 39 weeks; format: physicochemical; conditions: lactose formulation 6.3% w/w
# Procedure: Formulation of the P-3 dihydrate form of the API with lactose (6.3% w/w) was placed on stability 40° C./75% RH in sealed glass bottles for 39 weeks. After samples removal, the lactose was removed by dissolution in purified water. The reference formulation was also subjected to the same lactose extraction procedure to eliminate the possibility for form conversion in water.
# [7] = in vivo
# From the text: The purpose of the following studies was to assess the safety, tolerability, local and systemic pharmacokinetics of single and multiple doses of MDT-637 P3 in healthy volunteers and asthmatics.
# as §1, with “breaths.” for “breaths. The studies were conducted as follows:”
# [8] = for Total Imp/Deg: listed as P224-163-1; for number of impurity peaks: listed as P-3
# Procedure: Forced degradation experiments consisted of placing solid samples of P-2 hydrate and P-3 dihydrate materials in sealed glass bottles at 120° C. for 7 days.
# [9] = Slurry of equal mixture of six phases in 75/25 acetone-water (PXRD); format: physicochemical; conditions: 25° C., 12 days, listed as P-3
# Procedure: An equal powder mixture of six known phases (P-2, P-3, P-4, P-6, P-7 and P-8), 50 mg each were stirred in 75/25 acetone-water solvent (50 mL) at 25° C. over 12 days.
# [10] = Critical water activity by DVS sorption/desorption isotherms; format: physicochemical; conditions: 20° C.
# From the text: The characteristic gravimetric loss of water is between 1-4.5% w/w.
# The characteristic gravimetric loss of water for P-3 dihydrate is between 5.5-8.5% w/w. The profound difference of the DVS curves between the P-2 and P-3 forms can be utilized as a secondary technique for quantitative phase analysis of these forms.
# [11] = 40° C./75% RH, 4 weeks
# [12] = Bulk powder density and flow indices (volumetric); format: physicochemical
# [13] = Competitive slurry stability study between P-2 and P-3 (PXRD quantitative phase analysis); format: physicochemical; conditions: 50/50 acetonitrile/water, 25° C., over 10 days
# [14] = clinical; conditions: human, in vivo, 132 ug
# Procedure: as §2, §3, §4, §5
# [15] = human, in vivo; remark: listed apart in the source
# Procedure: The study consisted of 3 visits: Visit 1 (Screening), Visit 2 (Dosing) and Visit 3 (Follow up); subjects furloughed from the clinic between Visits 2 and 3.
# Both active and matched placebo were administered via face mask inhalation from a proprietary delivery system (MicroDose inhaler).
# Single doses were administered in the morning. TID doses will be administered at 6 hour intervals, with the 1st of the 3 doses administered in the morning.
# Pharmacokinetic variables (Cmax, Tmax, AUC, T1/2) were evaluated based on blood samples drawn at Visit 2.
# [16] = Storage stability of micronized API in amber glass bottles (DSC, PXRD); format: physicochemical; conditions: 25° C./60% RH and 40° C./75% RH, through 12 months
# Procedure: The micronized, P-3 dihydrate material was stored in 1.85 mL amber bottles with Teflon lined caps. The 25° C./60% RH and 40° C./75% RH simulated storage and worst-case storage conditions correspondingly.
smiles,measurement,setting,value
"Cc1nnnn1/N=C/c1ccc(O)c(C(c2ccc(O)cc2)c2cc(/C=N/n3nnnc3C)ccc2O)c1 [P-3 dihydrate, phenol, 2,2′-[(4-hydroxyphenyl)methylene]bis[4-[[(5-methyl-1H-tetrazol-1-yl)imino]methyl]]]","clinically significant changes in labs, vital signs, ECGs, physical exams",[1],No clinically significant changes
same,clinically significant changes in pulmonary function / pulmonary AEs,[1],No clinically significant changes in pulmonary function or reports of pulmonary AEs
same,"pharmacokinetics, asthmatic vs healthy population",[1],comparable between the healthy and asthmatic population
same,subjects reporting adverse events,[1]; 3 separate dosing days,2/10
same,subjects reporting no adverse events,[1]; 3 separate dosing days,8/10
same,Characteristic medium volume particle size (micronized),[2],1.5 μm
same,CVs of PK exposure,[3],15-30%
same,"clinically significant changes in labs, vital signs, ECGs, physical exams",[3],No clinically significant changes
same,TEAEs considered related to study treatment,[3]; 10 days,5 TEAEs
same,subjects reporting TEAEs,[3]; 10 days,13 subjects
same,subjects reporting no TEAEs,[3]; 10 days,25 subjects
same,total TEAEs overall,[3]; 10 days,20 TEAEs
same,Crystal (skeletal) density,[4],1.61 g/mL
same,Specific surface area,[5],11.0 m^2/g
same,change of crystal form in formulation with lactose,[6],stable against solid-state conversion
same,"clinically significant changes in ECG, laboratory values, vital signs or physical exam",[7],no clinically significant changes
same,pulmonary adverse events or changes in pulmonary function,[7],no pulmonary adverse events or changes in pulmonary function were observed
same,serious adverse events,[7],no serious adverse events were observed
same,systemic exposure,[7],highly consistent and low systemic exposure
same,Grand Total,[8]; 120C/7D,99.8 Area %
same,Total Imp/Deg,[8]; 120C/7D,6.49 Area %
same,Impurity/Degradation Product A,[8]; 7 days,0.12 Area %
same,Impurity/Degradation Product B,[8]; 7 days,3.60 Area %
same,Impurity/Degradation Product C,[8]; 7 days,0.17 Area %
same,Impurity/Degradation Product D,[8]; 7 days,0.48 Area %
same,Impurity/Degradation Product E,[8]; 7 days,0.28 Area %
same,Impurity/Degradation Product F,[8]; 7 days,0.08 Area %
same,Impurity/Degradation Product G,[8]; 7 days,0.05 Area %
same,Impurity/Degradation Product H,[8]; 7 days,0.43 Area %
same,Impurity/Degradation Product I,[8]; 7 days,0.17 Area %
same,Impurity/Degradation Product K,[8]; 7 days,0.13 Area %
same,Impurity/Degradation Product L,[8]; 7 days,0.06 Area %
same,Impurity/Degradation Product M,[8]; 7 days,0.09 Area %
same,Impurity/Degradation Product N,[8]; 7 days,0.07 Area %
same,Impurity/Degradation Product O,[8]; 7 days,0.37 Area %
same,Impurity/Degradation Product P,[8]; 7 days,0.36 Area %
same,Impurity/Degradation Product Q,[8]; 7 days,0.05 Area %
same,Grand Total,[8]; CTRL,99.9 Area %
same,Total Imp/Deg,[8]; CTRL,1.16 Area %
same,number of impurity peaks,[8]; control,6 peaks
same,number of impurity peaks,"[8]; stressed sample, 120° C. for 7 days",16 peaks
same,form conversion / stability in six-phase slurry,[9],convert to P-2 hydrate
same,transition point (monohydrate),"[10]; 1% RH steps, first of two transition points",approximately 3 % RH
same,transition point (dihydrate),"[10]; 1% RH steps, second of two transition points",~13 % RH
same,Characteristic relative humidity of dehydration (20° C.),[10],3-17%
same,Assay,"[11]; open dish, listed as P-3",96.7%
same,Rel Subs,"[11]; open dish, listed as P-3",0.67%
same,Water,"[11]; open dish, listed as P-3",5.9%
same,change of form / solid-state stability (DSC and PXRD),[11]; open wide glass bottles,no change of form
same,chemical stability,[11]; open wide glass bottles,Acceptable chemical stability
same,Carr index,[12],27.5%
same,Hausner ratio,[12],1.38
same,Poured bulk powder density,[12],0.22 g/mL
same,Tapped bulk powder density,[12],0.30 g/mL
same,form conversion in competitive slurry,[13],converts to P-2
same,AUC(0-t),[14],1.16 ng·h/mL
same,changes in pulmonary function / pulmonary AEs,[15],No significant changes in pulmonary function or reports of pulmonary AEs
same,"clinically significant changes in labs, vital signs, ECGs, physical exams",[15],No clinically significant changes
same,treatment emergent adverse event considered possibly related by PI,[15],Mild dizziness
same,nasal wash levels,[15]; 24 h,> MDT-637 P3's IC50 for RSV
same,change in form (DSC and PXRD),[16],no change in form was observed
